Measured values from patent US20080064665A1, “Combination approaches to cancer treatment” (priority 2006, published 2008).

System: SiHa cervical cancer xenografts
Experiment: Excision assay of SiHa xenografts (clonogenic log cell kill)
Assay type: in vivo, CD-1 Fox^nu mice
Settings: SN 28343 91.2 mg/kg, SN 29303 375 mg/kg
Experimental: As for Part 1 except for except where noted below.
Excess compound was discarded.
Date, body weights (used to adjust injection volume), tumor diameter, unique identifier (tail markings), body weight, and volume to be injected were recorded. Animals were dosed with the test articles i.p. following a defined treatment schedule:
18 hours after treatment the mice were culled by cervical dislocation and tumors removed by dissection, in a sterile laminar flow hood. Whole tumor weights were recorded. Tumors were minced using scissors or scalpels until a fine minceate was obtained, and up to 500 mg of minceate was transferred into a pre-tiered Falcon®14 ml test tube containing a sterile magnetic spin bar and re-weighed.
Samples were then incubated in 37° C. water bath for 30 min over a magnetic stirrer.
After incubation any undissociated material was allowed to settle for 1 minute. […] Pellets were re-suspended in 10 ml of medium. Cells/ml was determined using an electronic particle counter (Beckman Coulter Electronics, Z2 model). Samples were then diluted to 1×10^5cells/ml and 6-fold serial dilutions made down to 4.6×10^2cells/ml.
1 ml of each sample was plated in triplicate for each dilution into appropriately labelled Falcon® P-60 tissue culture dishes containing 4 ml of αMEM+10% FCS+PS.
Where possible, all plates were counted; those colonies counted=larger than 50 cells, confirmed with the light microscope. TMTC was recorded for those plates where there were too many colonies to count.
The criteria for selecting the best dilution to use for calculating plating efficiency (PE):
Higher dilution count>100 colonies (average); lower dilution 10-100 colonies, use PE from the dilution with fewer colonies.
Higher dilution count >100; lower dilution count <20, use average data from both.
Higher dilution count <100; lower dilution count <20, use PE from the dilution with more colonies.
Higher dilution count <100; lower dilution count >20, use average data from both. Note: For the 10^5 dilution, take as the “lower limit” colony count a total count of 30, (sum of all replicates).

For `CC(=O)O[C@@]12CO[C@@H]1C[C@H](O)[C@@]1(C)C(=O)[C@H](O)C3=C(C)[C@@H](OC(=O)[C@H](O)[C@@H](NC(=O)OC(C)(C)C)c4ccccc4)C[C@@](O)([C@@H](OC(=O)c4ccccc4)[C@H]21)C3(C)C` [Docetaxel, (2R,3S)-N-carboxy-3-phenylisoserine, N-tert-butyl ester, 13-ester with 5β-20-epoxy-1,2α,4,7β,10β,13α-hexahydroxytax-11-en-9-one 4-acetate 2-benzoate, trihydrate, reference compound], the “cell kill versus controls in excision assay (in words)” value (SiHa human cervical tumor xenograft, docetaxel 65 mg/kg i.p.) was “inactive” and the “Log Cell Kill versus controls (Mean ± SEM)” value (SiHa tumors excised 18 hours after treatment, docetaxel 65 mg/kg, i.p.) was 0.451.
